{"source": "patent US7662853B2", "about": "“Monoacetyldiacylglycerol derivative for the treatment of sepsis” (priority 2004, dated 2010)", "key": {"KIGB-5 cells": {"test_system": "KIGB-5 cells", "assay": "Biliary cancer model in hamster, Compound 3 dose groups", "assay_type": "in vivo, Syrian golden hamsters", "settings": "for gross findings, tumor: 4th week", "method": "In another hand, six week old female Syrian golden hamsters were housed in specific pathogen free unit. KIGB-5 cells (5×10^5) suspended in 100 μl of RPMI 1640 serum-free medium were intravenously injected via femoral vein. […] Animals of each group were sacrificed at 4, 8, 12 weeks for pathological examination. […] At 8th week, control group observed multiple metastatic lesions in both lungs."}, "KIBG-5 cells": {"test_system": "KIBG-5 cells", "assay": "Biliary cancer model in hamster (7 treatment groups)", "assay_type": "in vivo, Syrian golden hamsters", "settings": "Compound 3 25 mg/kg/day P.O.", "method": "Six week old female Syrian golden hamsters (Harlan, Indianapolis, […], USA) were housed in specific pathogen free unit. 5×10^5 KIBG-5 cells (Molecular therapy, Vol. 3, No. 4, pp 431-437) suspended in 100 μl of RPMI 1640 serum-free medium were intravenously injected via femoral vein. And 5×10^5 KIBG-5 cells suspended in 100 μl of RPMI 1640 serum-free medium were subcutaneously injected to the flank of the hamsters. Hamsters injected KIBG-5 were divided into following 7 groups;\n1) Control group treated with RPMI medium,\n2) Experimental group treated with non-modified BMSC cells (2.5×10^6) (Leukemia & Lymphoma, Vol. 44, No. 11, pp 1973-1978),\n3) Experimental group treated with BMSC cells modified with Ad/ΔE1 50 MOI (Leukemia & Lymphoma, Vol. 44, No. 11, pp 1973-1978),\n4) Experimental group treated with DC+ tumor lysate (5×10^6),\n5) Experimental group treated with BMSC cells modified with Ad/hIL-2 50 MOI (Leukemia & Lymphoma, Vol. 44, No. 11, pp 1973-1978),\nOne week after the injection of cancer cells to hamsters (BMSC treated group), 2.5×10^6 of BMSC cells were injected once again to each hamster. In the case of DC+tumor lysate treated group, 5×10^6 of DC cells and tumor lysate were injected to each hamster (with subcutaneous injection or intravenous injection) at the first, second, third, forth, sixth, eighth week, followed by observation for 12 weeks."}, "ICR mice": {"test_system": "ICR mice", "assay": "Toxicity test, single oral administration", "assay_type": "in vivo", "settings": "for Number of dead mice/Number of orally administered mice: 14 days", "method": "(§1) Control group was treated 5% ethanol solution. IRC mice, housed in SPF facility were used as test animals. […] Weight increment rate(%)={Weight of day 14−Weight of day 0}÷{Weight of day 0}×100 [Mathematical Formula 2]"}, "[1]": {"assay": "Toxicity test, single oral administration", "assay_type": "in vivo", "settings": "mouse, in vivo; ICR mice, oral, single dose, 14 days", "method": "as §1"}, "[2]": {"test_system": "C3H/HeN mice with CLP-induced septic shock", "assay": "CLP (Cecal Ligation and Puncture) test, septic shock", "assay_type": "in vivo", "settings": "50 mg/kg oral", "excerpt": "Ten 7-10 week old male inbred C3H/HeN mice (20-25 g of weight) were grouped. […] Septic shock was induced by CLP model in anesthetized mice. […] Control group was orally administered PBS+5% ethanol solution."}, "rats": {"test_system": "rats", "assay": "Long term hepatotoxicity test", "assay_type": "in vivo", "settings": "100 mg/Kg body weight/day P.O. for 4 weeks", "excerpt": "At the end of 4 weeks liver histology was observed."}, "malignant melanoma cells": {"test_system": "malignant melanoma cells", "assay": "Cytotoxicity of T-cells activated by Compound 3 to malignant melanoma cells", "assay_type": "cell-based", "settings": "ratio of T-cells activated by Compound 3 to melanoma cells 100:1; FIG. 16: 1 μg/ml"}}}
{"compound": "CCCCC/C=C\\C/C=C\\CCCCCCCC(=O)OC(COC(C)=O)COC(=O)CCCCCCCCCCCCCCC", "note": "(stereo not shown) [Compound 3]", "values": [{"measurement": "gross findings, tumor", "setting": "KIGB-5 cells; 10 mg/kg/day P.O.", "value": "no evidence of tumor"}, {"measurement": "gross findings, tumor", "setting": "KIGB-5 cells; 25 mg/kg/day P.O.", "value": "no evidence of tumor"}, {"measurement": "gross findings, tumor", "setting": "KIGB-5 cells; 50 mg/kg/day P.O.", "value": "no evidence of tumor"}, {"measurement": "metastatic lung lesions", "setting": "KIGB-5 cells; 8th week, 10 mg/kg/day P.O.", "value": "showed tumor in the left lung"}, {"measurement": "metastatic lung lesions with microscope", "setting": "KIGB-5 cells; 8th week, 25 mg/kg/day P.O.", "value": "showed one minute lesion with microscope"}, {"measurement": "metastatic lung lesions with naked eye", "setting": "KIGB-5 cells; 8th week, 25 mg/kg/day P.O.", "value": "did not show any metastatic lung lesions with naked eye"}, {"measurement": "metastatic lung lesions with naked eye", "setting": "KIGB-5 cells; 8th week, 50 mg/kg/day P.O.", "value": "did not show any metastatic lung lesions with naked eye"}, {"measurement": "tumor formation", "setting": "KIBG-5 cells; 4 weeks after cancer cell injection", "value": "no tumor were found"}, {"measurement": "metastatic lung lesions", "setting": "KIBG-5 cells; 8 weeks after cancer cell injection (i.v.)", "value": "only one minute lung lesion was found"}, {"measurement": "Death rate", "setting": "ICR mice; 62.5 mg/kg oral once", "value": 12.5, "unit": "%"}, {"measurement": "Number of dead mice/Number of orally administered mice", "setting": "ICR mice; 62.5 mg/kg oral once", "value": "1/8"}, {"measurement": "toxicity", "setting": "ICR mice; 62.5 mg/kg˜2 g/kg oral once, 14 days observation", "value": "No toxicity was seen"}, {"measurement": "Death rate", "setting": "ICR mice; 125 mg/kg oral once", "value": 30, "unit": "%"}, {"measurement": "Number of dead mice/Number of orally administered mice", "setting": "ICR mice; 125 mg/kg oral once", "value": "0/8"}, {"measurement": "Death rate", "setting": "ICR mice; 250 mg/kg oral once", "value": 12.5, "unit": "%"}, {"measurement": "Number of dead mice/Number of orally administered mice", "setting": "ICR mice; 250 mg/kg oral once", "value": "1/8"}, {"measurement": "Death rate", "setting": "ICR mice; 500 mg/kg oral once", "value": 22.2, "unit": "%"}, {"measurement": "Number of dead mice/Number of orally administered mice", "setting": "ICR mice; 500 mg/kg oral once", "value": "2/9"}, {"measurement": "Death rate", "setting": "ICR mice; 1000 mg/kg oral once", "value": 0, "unit": "%"}, {"measurement": "Number of dead mice/Number of orally administered mice", "setting": "ICR mice; 1000 mg/kg oral once", "value": "0/9"}, {"measurement": "Death rate", "setting": "ICR mice; 2000 mg/kg oral once", "value": 0, "unit": "%"}, {"measurement": "Number of dead mice/Number of orally administered mice", "setting": "ICR mice; 2000 mg/kg oral once", "value": "0/9"}, {"measurement": "LD50 at 14 days", "setting": "[1]", "value": "> 2000", "unit": "mg/kg"}, {"measurement": "Survival rate", "setting": "[2]; 0 hour", "value": 100, "unit": "%"}, {"measurement": "Survival rate", "setting": "[2]; 24 hours", "value": 100, "unit": "%"}, {"measurement": "Survival rate", "setting": "[2]; 48 hours", "value": 100, "unit": "%"}, {"measurement": "Survival rate", "setting": "[2]; 72 hours", "value": 100, "unit": "%"}, {"measurement": "Survival rate", "setting": "[2]; 96 hours", "value": 100, "unit": "%"}, {"measurement": "Survival rate", "setting": "[2]; 120 hours, 50 mg/kg", "value": 100, "unit": "%"}, {"measurement": "adverse effect (liver function test, lipid profile, cytochrome C-450 activity, liver histology)", "setting": "rats", "value": "No significantly adverse effect was observed"}, {"measurement": "cytotoxicity increased", "setting": "malignant melanoma cells", "value": 42, "unit": "%"}]}
